Experimental data: US20250282776A1, “Bicyclic TLR7 Agonists and Uses Thereof” (Bristol-Myers Squibb Company, priority 2024, published 2025)

Experiments:
human TLR7 (hTLR7) = molecular target: T1, human TLR7 (hTLR7) (Homo sapiens, UniProt Q9NYK1); experiment: Human TLR7 agonist activity assay (HEK-Blue TLR7 SEAP reporter); type: cell-based; settings: HEK-Blue TLR7 cells, 18 h incubation, Quanti-Blue, OD 620 nm, some values average of multiple measurements
T1 construct: host or cells: HEK-Blue TLR7 cells (engineered human embryonic kidney cells)
T1 sequence (Q9NYK1 27-1049): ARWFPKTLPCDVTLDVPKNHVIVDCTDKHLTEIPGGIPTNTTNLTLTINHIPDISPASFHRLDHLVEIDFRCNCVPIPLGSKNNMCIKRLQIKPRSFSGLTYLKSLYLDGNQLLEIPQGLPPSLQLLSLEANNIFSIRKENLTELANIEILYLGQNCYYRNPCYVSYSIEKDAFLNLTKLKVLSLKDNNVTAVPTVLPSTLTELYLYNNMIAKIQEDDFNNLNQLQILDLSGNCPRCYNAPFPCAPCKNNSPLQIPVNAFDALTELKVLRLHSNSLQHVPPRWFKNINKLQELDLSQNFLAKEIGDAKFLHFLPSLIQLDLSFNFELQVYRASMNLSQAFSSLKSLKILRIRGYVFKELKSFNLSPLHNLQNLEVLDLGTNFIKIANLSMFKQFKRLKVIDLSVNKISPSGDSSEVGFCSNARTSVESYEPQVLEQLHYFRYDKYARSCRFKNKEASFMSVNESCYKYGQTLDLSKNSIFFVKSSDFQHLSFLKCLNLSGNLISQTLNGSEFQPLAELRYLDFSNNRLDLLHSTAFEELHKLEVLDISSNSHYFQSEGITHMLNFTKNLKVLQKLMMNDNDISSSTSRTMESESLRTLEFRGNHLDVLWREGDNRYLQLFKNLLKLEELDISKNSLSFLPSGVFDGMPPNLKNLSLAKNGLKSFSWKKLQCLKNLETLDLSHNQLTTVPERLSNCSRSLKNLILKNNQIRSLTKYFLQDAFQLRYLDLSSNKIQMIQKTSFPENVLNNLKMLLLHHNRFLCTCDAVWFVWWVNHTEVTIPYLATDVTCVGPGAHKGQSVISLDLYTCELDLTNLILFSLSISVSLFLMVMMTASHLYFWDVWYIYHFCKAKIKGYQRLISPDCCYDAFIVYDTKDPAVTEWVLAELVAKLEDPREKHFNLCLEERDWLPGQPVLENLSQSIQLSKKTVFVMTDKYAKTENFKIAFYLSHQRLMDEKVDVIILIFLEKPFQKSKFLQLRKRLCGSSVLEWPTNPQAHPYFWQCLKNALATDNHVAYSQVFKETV
Procedure: (§1) This procedure describes a method for assaying human TLR7 (hTLR7) and human TLR8 (hTLR8) agonist activity of the compounds disclosed herein.
(§2) HEK-Blue™ TLR7 cells were added to each well of a 384-well tissue-culture plate (15,000 cells per well) and incubated 16-18 h at 37° C., 5% CO2. Compounds (100 nL) were dispensed into wells containing the HEK-Blue™ TLR cells and the treated cells were incubated at 37° C., 5% CO2. After 18 h, ten microliters 5 of freshly prepared Quanti-Blue™ reagent (Invivogen) was added to each well and incubated for 30 min (37° C., […]). SLAP levels were measured using an Envision plate reader (OD=620 nm). The half maximal effective concentration values (ECSO; compound concentration which induced a response halfway between the assay baseline and maximum) were calculated. Some of the reported activities were the average of multiple measurements.

human TLR8 (hTLR8) = molecular target: T2, human TLR8 (hTLR8) (Homo sapiens, UniProt Q9NR97); experiment: Human TLR8 agonist activity assay (measured in a similar manner); type: cell-based; settings: HEK-Blue TLR cells, SEAP reporter, measured in a similar manner to TLR7; some values average of multiple measurements
T2 construct: expressed in transfected cells
T2 sequence (Q9NR97 27-1041): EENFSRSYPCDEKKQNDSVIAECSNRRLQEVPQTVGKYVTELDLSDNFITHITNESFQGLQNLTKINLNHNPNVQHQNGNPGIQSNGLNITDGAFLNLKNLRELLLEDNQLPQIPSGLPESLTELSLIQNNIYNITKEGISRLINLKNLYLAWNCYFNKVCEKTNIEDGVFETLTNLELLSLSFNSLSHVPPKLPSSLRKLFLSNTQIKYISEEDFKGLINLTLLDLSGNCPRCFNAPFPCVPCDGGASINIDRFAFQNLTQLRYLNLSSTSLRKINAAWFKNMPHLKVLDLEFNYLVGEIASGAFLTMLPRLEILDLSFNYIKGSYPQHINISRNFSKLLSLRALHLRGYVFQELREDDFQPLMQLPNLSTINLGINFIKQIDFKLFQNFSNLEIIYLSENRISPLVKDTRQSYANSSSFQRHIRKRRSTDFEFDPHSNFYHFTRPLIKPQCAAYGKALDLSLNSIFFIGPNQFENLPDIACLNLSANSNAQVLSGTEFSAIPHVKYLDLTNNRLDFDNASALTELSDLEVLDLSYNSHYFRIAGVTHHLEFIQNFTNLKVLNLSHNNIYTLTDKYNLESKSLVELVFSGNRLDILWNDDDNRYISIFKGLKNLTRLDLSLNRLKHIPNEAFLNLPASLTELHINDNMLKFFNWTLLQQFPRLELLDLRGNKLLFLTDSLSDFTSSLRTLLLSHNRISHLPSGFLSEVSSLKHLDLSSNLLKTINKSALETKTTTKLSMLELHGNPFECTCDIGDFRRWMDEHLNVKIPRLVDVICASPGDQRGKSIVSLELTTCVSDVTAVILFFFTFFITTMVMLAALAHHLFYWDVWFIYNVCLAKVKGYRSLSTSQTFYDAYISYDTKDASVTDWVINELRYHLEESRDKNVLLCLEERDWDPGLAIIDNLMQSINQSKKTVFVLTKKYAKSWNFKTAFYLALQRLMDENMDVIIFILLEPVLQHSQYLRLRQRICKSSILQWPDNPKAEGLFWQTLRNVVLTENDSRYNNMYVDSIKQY
Procedure: as §1
as §2, with “The half maximal effective concentration values (ECSO; compound concentration which induced a response halfway between the assay baseline and maximum) were calculated.” left out
TLR8 activity was measured in a similar manner.

Row | SMILES | EC50 (human TLR7 (hTLR7)) | EC50 (human TLR8 (hTLR8))
1 | CCCCN(CCO)c1nc(N)nc2cn(Cc3ccc(CNCCOC)cc3OC)nc12 [Compound 10] | 1330 nM | 1450 nM
2 | CCCCN(CCO)c1nc(N)nc2cn(Cc3ccc(CN4C[C@H]5COC[C@H]5C4)cc3OC)nc12 [Compound 11] | 732 nM | 727 nM
3 | CCCCNCc1ccc(Cn2cc3nc(N)nc(N(CCO)CCCC)c3n2)c(OC)c1 [Compound 12] | 661 nM | 477 nM
4 | CCCCN(CCO)c1nc(N)nc2cn(Cc3ccc(CN4CCN(C)CC4)cc3OC)nc12 [Compound 13] | 733 nM | 1130 nM
5 | CCCCN(CCO)c1nc(N)nc2cn(Cc3c(F)cc(C4=CCNCC4)cc3OC)nc12 [Compound 15] | 688 nM | 2510 nM
6 | CCCCN(CCO)c1nc(N)nc2cn(Cc3c(F)cc(C4CCNCC4)cc3OC)nc12 [Compound 16] | 749 nM | 2500 nM
7 | CCCCN(CCO)c1nc(N)nc2cn(Cc3ccc(CNCC)cc3OC)nc12 [Compound 17] | 1150 nM | 745 nM
8 | CCCCN(CCO)c1nc(N)nc2cn(Cc3ccc(CN4CCOCC4)cc3OC)nc12 [Compound 18] | 380 nM | 447 nM
9 | CCCCN(CCO)c1nc(N)nc2cn(Cc3ccc(CN4CCN(CCO)CC4)cc3OC)nc12 [Compound 19] | 696 nM | 1470 nM
10 | CCCCN(CCO)c1nc(N)nc2cn(Cc3ccc(CN4CC(O)C4)cc3OC)nc12 [Compound 20] | 1180 nM | 705 nM
11 | CCCCN(CCO)c1nc(N)nc2cn(Cc3ccc(CNC4(C)COC4)cc3OC)nc12 [Compound 21] | 587 nM | 834 nM
12 | CCCCN(CCO)c1nc(N)nc2cn(Cc3ccc(CN[C@H]4C[C@H]5COC[C@H]54)cc3OC)nc12 [Compound 22] | 614 nM | 547 nM
13 | CCCCN(CCO)c1nc(N)nc2cn(Cc3ccc(CNC[C@H]4C[C@H](O)C4)cc3OC)nc12 [Compound 23] | 1910 nM | 1900 nM
14 | CCCCN(CCO)c1nc(N)nc2cn(Cc3ccc(CNC4CCOC4)cc3OC)nc12 (stereo not shown) [Compound 25] | 430 nM | 360 nM
15 | CCCCN(CCO)c1nc(N)nc2cn(Cc3ccc(CNC4COC4)cc3OC)nc12 [Compound 26] | 828 nM | 1140 nM
16 | CCCCN(CCO)c1nc(N)nc2cn(Cc3ccc(CN4CC5(CC(O)C5)C4)cc3OC)nc12 [Compound 27] | 1970 nM | 1950 nM
17 | CCCCN(CCO)c1nc(N)nc2cn(Cc3ccc(CN4CC5(CCO5)C4)cc3OC)nc12 [Compound 28] | 284 nM | 266 nM
18 | CCCCN(CCO)c1nc(N)nc2cn(Cc3ccc(CNC4CC(O)C4)cc3OC)nc12 (stereo not shown) [Compound 29] | 2500 nM | 2500 nM

Row | SMILES | EC50 (human TLR7 (hTLR7)) | EC50 (human TLR8 (hTLR8))
19 | CCCCN(CCO)c1nc(N)nc2cn(Cc3ccc(CN4CC5(C4)CN(C(C)C)C5)cc3OC)nc12 [Compound 30] | 1410 nM | 1620 nM
20 | CCCCN(CCO)c1nc(N)nc2cn(Cc3ccc(CNC(C)(C)CO)cc3OC)nc12 [Compound 32] | 2500 nM | 1200 nM
21 | CCCCN(CCO)c1nc(N)nc2cn(Cc3ccc(CNC(C)(C)COC)cc3OC)nc12 [Compound 33] | 548 nM | 524 nM
22 | CCCCN(CCO)c1nc(N)nc2cn(Cc3c(F)cc(C4CCN(CCO)CC4)cc3OC)nc12 [Compound 35] | 551 nM | 1850 nM
23 | CCCCN(CCO)c1nc(N)nc2cn(Cc3c(F)cc(C4CCN(CC(C)(C)O)CC4)cc3OC)nc12 [Compound 36] | 144 nM | 525 nM
24 | CCCCN(CCO)c1nc(N)nc2cn(Cc3c(F)cc(C4CCN(C5CCOCC5)CC4)cc3OC)nc12 [Compound 37, 2-((5-amino-2-(2-fluoro-6-methoxy-4-(1-(tetrahydro-2H-pyran-4-yl)piperidin-4-yl)benzyl)-2H-pyrazolo[4,3-d]pyrimidin-7-yl)(butyl)amino)ethan-1-ol] | 176 nM | 516 nM
25 | CCCCN(CCO)c1nc(N)nc2cn(Cc3c(F)cc(C4CCN(C5CC6(CCC6)C5)CC4)cc3OC)nc12 [Compound 39] | 396 nM | 437 nM
26 | CCCCN(CCO)c1nc(N)nc2cn(Cc3c(F)cc(C4CCN(C(C)C)CC4)cc3OC)nc12 [Compound 40] | 392 nM | 801 nM
27 | CCCCN(CCO)c1nc(N)nc2cn(Cc3c(F)cc(C4CCN(CC(N)=O)CC4)cc3OC)nc12 [Compound 41] | 251 nM | 858 nM
28 | CCCCN(CCO)c1nc(N)nc2cn(Cc3c(F)cc(C4CCN(CCS(C)(=O)=O)CC4)cc3OC)nc12 [Compound 42] | 101 nM | 496 nM
29 | CCCCCN(CCO)c1nc(N)nc2cn(Cc3ccc(CNC4CCC4)cc3OC)nc12 [Compound 44] | 825 nM | 705 nM
30 | CCCCNCc1ccc(Cn2cc3nc(N)nc(N(CCO)CCCC)c3n2)c2ncccc12 [Compound 45] | 280 nM | 205 nM
31 | CCCCN(CCO)c1nc(N)nc2cn(Cc3ccc(CNC4CCC4)c4cccnc34)nc12 [Compound 46, 2-((5-Amino-2-((5-((cyclobutylamino)methyl)quinolin-8-yl)methyl)-2H-pyrazolo[4,3-d]pyrimidin-7-yl)(butyl)amino)ethan-1-ol] | 326 nM | 360 nM
32 | CCCCN(CCO)c1nc(N)nc2cn(Cc3c(F)cc(C4CCN(C)CC4)cc3OC)nc12 [Compound 47] | 186 nM | 538 nM
33 | CCCCN(CCO)c1nc(N)nc2cn(Cc3ccc(CN4CC(CCOC)C4)c4cccnc34)nc12 [Compound 48] | 182 nM | 227 nM
34 | CCCCN(c1nc(N)nc2cn(Cc3ccc(CN4CCCCC4)cc3OC)nc12)C(C)CO (stereo not shown) [Compound 50] | 374 nM | 949 nM
35 | CCCCN(CCO)c1nc(N)nc2cn(Cc3ccc(CN[C@H]4CCOC4)cc3OC)nc12 [Compound 52] | 1190 nM | 1070 nM
